Legend:
human lung cancer A549 [1] = test: Lung cancer model, Experiment A: A549 xenograft; format: in vivo; settings: A549, Cby.Cg-foxn1(nu)/J mice; 20 mg/kg i.v. 6 times every second day; 35 day
Description: (§1) Tumor size was measured using electronic calliper, tumor volume was calculated using the formula: (a^2×b)/2, where a=shorter diagonal of the tumor (mm) and b=longer diagonal of the tumor (mm). Inhibition of tumor growth was calculated using the formula:
(§2) TGI[%](Tumor growth inhibition)=(WT/WC)×100−100%
(§3) wherein WT is the average tumor volume in the treatment group, and WC is the average tumor volume in the control group.
On day 0 Cby.Cg-foxn1(nu)/J mice were grafted subcutaneously (s.c.) in the right side with 5×10^6 of A549 cells suspended in 0.1 ml of the mixture HBSS:Matrigel 4:1 using syringe with a needle 0.5×25 mm (Bogmark). On the 19 day of the experiment mice were randomized to obtain the average size of tumors in the group of ˜75 mm3 and assigned to treatment groups. The treatment groups were administered with the preparations of fusion protein of the invention of Ex. 11^a (15 mg/kg), and rhTRAIL114-281 (20 mg/kg) as a comparison and water for injections as a control. The preparations were administered intravenously (i.v) 6 times once daily every second day. On the 35 day of the experiment mice were sacrificed by disruption of the spinal cord.

human lung cancer A549 [2] = test: Lung cancer model, Experiment B: A549 xenograft; format: in vivo, Crl:SHO-PrkdcscidHrhr mice; settings: A549, Crl:SHO mice; 20 mg/kg i.v. 6 times every second day; 34 day
Description: as §1, §2, §3
Experiment B. On day 0 Crl:SHO-Prkdc^scidHr^h mice were grafted subcutaneously (s.c.) in the right side with 7×10^6 of A549 cells suspended in 0.1 ml of the mixture HBSS:Matrigel 3:1 using syringe with a needle 0.5×25 mm (Bogmark). On the 17 day of the experiment mice were randomized to obtain the average size of tumors in the group of ˜100-120 mm^3 and assigned to treatment groups. The treatment groups were administered with the preparations of fusion protein of the invention of Ex. 11^a (40 mg/kg), and rhTRAIL114-281 (20 mg/kg) as a comparison against formulation buffer (19 mM NaH2PO4, 81 mM Na2HPO4, 50 mM NaCl, 5 mM glutathione, 0.1 mM ZnCl2, 10% glycerol, pH 7.4) as a control. The preparations were administered intravenously (i.v) 6 times once daily every second day. On the 34 day of the experiment mice were sacrificed by disruption of the spinal cord.

[3] = system: human colon cancer Colo205; test: Colon cancer model, Experiment C: Colo205 xenograft; format: in vivo, Crl:SHO-PrkdcscidHrhr mice; settings: rhTRAIL 30 mg/kg i.v. 6 times every second day, 33 day
Description: as §1, §2, §3
On day 0 Crl:SHO-Prkdc^scidHr^hr mice were grafted subcutaneously (s.c.) in the right side with 5×10^6 of Colo205 cells suspended in 0.1 ml of HBSS buffer using syringe with a needle 0.5×25 mm (Bogmark). On the 13 day of the experiment mice were randomized to obtain the average size of tumors in the group of ˜115 mm^3 and assigned to treatment groups.
The treatment groups were administered with the preparations of fusion protein of the invention of Ex. 16^a (30 mg/kg), and rhTRAIL114-281 (30 mg/kg) as a comparison against formulation buffer (19 mM NaH2PO4, 81 mM Na2HPO4, 50 mM NaCl, 5 mM glutathione, 0.1 mM ZnCl2, 10% glycerol, pH 7.4) as a control. The preparations were administered intravenously (i.v) 6 times once daily every second day. On the 33 day of the experiment mice were sacrificed by disruption of spinal cord.

human liver cancer HepG2 = test: Liver cancer model, Experiment A: HepG2 xenograft; format: in vivo, Crl:SHO-PrkdcscidHrhr mice; settings: 50 mg/kg i.v. six times every second day, 42th day
Description: as §1, §2, §3
On day 0 Crl:SHO-Prkdc^scidHr^hr mice were grafted subcutaneously (s.c.) in the right flank region with 7×10^6 of HepG2 cells suspended in 0.1 ml of the 3:1 mixture HBSS buffer:Matrigel using syringe with a 0.5×25 mm needle (Bogmark). When tumors reached the size of 64-529 mm^3 (day 25), mice were randomized to obtain the average size of tumors in the group of −230 mm^3 and assigned to treatment groups. The treatment groups were administered with the preparations of fusion protein of the invention of Ex. 16^b (80 mg/kg) and rhTRAIL114-281 (50 mg/kg) as a comparison and reference compound 5-FU (5-Fluorouracil, Sigma-Aldrich) (20 mg/kg). The preparations were administered intravenously (i.v.) six times every second day, 5-FU was applied intraperitoneally (i.p.). The control group received formulation buffer.
When the therapeutic group reached the average tumor size of ˜1000 mm^3, mice were sacrificed by cervical dislocation.

[4] = system: human liver cancer PLC/PRF/5; test: Liver cancer model, Experiment B: PLC/PRF/5 xenograft; format: in vivo, Crl:SHO-PrkdcscidHrhr mice; settings: rhTRAIL 50 mg/kg i.v. six times every second day, 43th day
Description: as §1, §2, §3
On day 0 Crl:SHO-Prkdc^scidHr^hr mice were grafted subcutaneously (s.c.) in the right flank region with 7×10^6 of PLC/PRF/5 cells suspended in 0.1 ml of the 3:1 mixture HBSS buffer:Matrigel using syringe with a 0.5×25 mm needle (Bogmark). When tumors reached the size of 72-536 mm^3 (day 29), mice were randomized to obtain the average size of tumors in the group of ˜205 mm^3 and assigned to treatment groups. The treatment groups were administered with the preparations of fusion protein of the invention of Ex. 16^b (50 mg/kg) and rhTRAIL114-281 (50 mg/kg) as a comparison and reference compound 5-FU (5-Fluorouracil, Sigma-Aldrich) (30 mg/kg). The preparations were administered intravenously (i.v.) six times every second day, except 5-FU, which was applied intraperitoneally (i.p.) in the schedule (q1dx5)×2. The control group received formulation buffer.
When an experimental group reached the average tumor size of ˜1000 mm^3, mice were sacrificed by cervical dislocation.

## rhTRAIL114-281: recombinant human soluble TRAIL, amino acids 114-281 of hTRAIL, used as comparative reference
Human lung cancer A549 [1]
  TGI (tumor growth inhibition) relative to the control: 0%
Human lung cancer A549 [2]
  TGI (tumor growth inhibition) relative to the control: 21.8%
[3]
  TGI (tumor growth inhibition) relative to the control: 18.8%
Human liver cancer HepG2
  TGI (tumor growth inhibition) relative to the control: 23.2%
[4]
  TGI (tumor growth inhibition) relative to the control: 25.2%
